From ChEMBL document CHEMBL1201862, “PubChem BioAssay data set” (2004)
Calls of active or inactive are those of the source.

What was measured:
INS1 = test: INS-1E survival protection against cytokine death – cell-based, luminescence, retest, dose response (AID 449756); type: functional; details: Rattus norvegicus;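 also: cell death triggered by IL-1 beta plus TNF-alpha plus IFN-gamma mixture; protective hits raise ATP signal compared with cytokine alone wells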
[1] = viability loss in THP-1 monocytes – THP-1 cells, cytotoxicity control for Vif-APOBEC3G degradation inhibitor project, dose response (AID 1117359); type: functional; details: THP-1
[2] = NIH3T3 cell viability loss – ATP luminescence, mouse fibroblasts, counter-screen, dose response (AID 2010); type: functional, cell-based;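 also: cells exposed to compound for about 90 hours before reading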
Protein Tat = target: T1, Protein Tat (Human immunodeficiency virus type 1 group M subtype B (isolate HXB2)(HIV-1), UniProt P04608); type: functional;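 also: tat binding to TAR RNA read out by fluorescence polarization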
T1 sequence (P04608 whole entry): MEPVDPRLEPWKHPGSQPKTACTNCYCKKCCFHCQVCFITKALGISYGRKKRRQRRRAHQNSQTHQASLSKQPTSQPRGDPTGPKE

[3] = Trypanosoma cruzi growth suppression in host cells – NIH3T3 host cells, beta-gal luminescence, confirmation (AID 2044); type: functional, cell-based;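 also: intracellular parasites grown in NIH/3T3 mouse fibroblasts as host cells; luminescent beta-galactosidase reporter signal from transgenic T. cruzi replicating inside host cells; inhibitors lower the luminescence signal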
[4] = growth inhibition of PfATP4-mutant resistant parasites – NITD609-resistant line, SYBR Green, dry powder, dose response (AID 1159571); type: functional, cell-based;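 also: parasites synchronized at ring stage by sorbitol before testing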
[5] = P. falciparum Dd2 growth inhibitors, dose response, SYBR Green, cherry-picked samples (AID 1159567); type: functional, cell-based
[6] = Dd2 malaria parasite growth inhibition potency – SYBR Green, dry powder samples, dose response (AID 1159566); type: functional, cell-based;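 also: potency for growth inhibition with lower SYBR green DNA signal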
[7] = toxicity to human hepatoma HepG2 cells – cell-based, cherry-picked samples, cytotoxicity control, dose response (AID 1159577); type: functional
[8] = growth inhibition of yeast DHODH-expressing 3D7 parasites – SYBR Green, dry powder samples, dose response (AID 1159570); type: functional, cell-based;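 also: parasite growth measured after 72 hours of compound exposure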
[9] = toxicity to human HepG2 hepatoma cells – cell-based, plate reader, dry powder samples, cytotoxicity control, dose response (AID 1159569); type: functional;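 also: inhibitor potency with signal falling toward the positive control level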
Fatty acid synthase [10] = target: T2, Fatty acid synthase (Homo sapiens, UniProt P49327); test: inhibition of human FAS-TE enzyme activity – biochemical, kinetic fluorescence intensity, dose response (AID 624326); type: functional;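 also: rate of fluorescence rise from hydrolysis of a fluorogenic O-methyl fluorescein ester substrate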
Fatty acid synthase [11] = target: T2, Fatty acid synthase; test: inhibition of human FAS-TE enzyme activity – biochemical, endpoint fluorescence intensity, uHTS hits, dose response (AID 624327); type: functional;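 also: fluorescence from hydrolysis of an O-methyl fluorescein acyl ester substrate by the enzyme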
[12] = Luminescence Cell-Based Dose Response HTS to Identify Inhibitors of 5'UTR Stem-Loop Driven Prion Protein mRNA Translation in H4 Neuroglioblastoma Cells. [Related pubchem assays: 1827 (Project Summary), 1813 (Primary HTS)]; type: functional
[13] = Luminescence-based cell-based high throughput dose response assay to identify activators of the DAF-12 from the parasite S. stercoralis (ssDAF-12).; type: functional
[14] = target: T3, Oxysterols receptor LXR-beta (Homo sapiens, UniProt P55055); test: LXR agonists, Gal4 luciferase reporter, dose response, counter-screen for ssDAF-12 agonist project, cell-based, luminescence, HEK293, S. stercoralis campaign (AID 720737); type: functional; details: read-out: IC50 (the source's name)
T3 sequence (P55055 whole entry): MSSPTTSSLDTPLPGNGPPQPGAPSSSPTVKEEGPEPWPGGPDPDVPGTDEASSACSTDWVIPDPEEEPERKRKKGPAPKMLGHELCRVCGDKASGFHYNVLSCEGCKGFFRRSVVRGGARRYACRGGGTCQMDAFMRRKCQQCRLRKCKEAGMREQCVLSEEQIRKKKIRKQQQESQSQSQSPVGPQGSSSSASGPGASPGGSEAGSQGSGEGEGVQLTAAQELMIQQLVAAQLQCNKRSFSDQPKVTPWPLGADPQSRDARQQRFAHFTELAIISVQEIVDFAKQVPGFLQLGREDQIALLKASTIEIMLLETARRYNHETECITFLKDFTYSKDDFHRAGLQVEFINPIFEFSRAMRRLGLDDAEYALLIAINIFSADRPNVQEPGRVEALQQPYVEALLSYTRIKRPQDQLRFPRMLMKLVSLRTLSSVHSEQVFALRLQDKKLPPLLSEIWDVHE

[15] = alpha-synuclein stem-loop luciferase translation blockers – H4 neuroglioma cells, luminescence, confirmation (AID 1988); type: functional, cell-based
[16] = viability loss in HeLa cells – cytotoxicity control for MgcRacGAP inhibitor project, dose response (AID 624300); type: functional
[17] = target: T4, Rac GTPase-activating protein 1 (Homo sapiens, UniProt Q9H0H5); test: blockers of MgcRacGAP-driven Rac1 GTP hydrolysis – biochemical, ADP Hunter fluorescence, primary and confirmatory, confirmation (AID 624330); type: functional
T4 sequence (Q9H0H5 whole entry): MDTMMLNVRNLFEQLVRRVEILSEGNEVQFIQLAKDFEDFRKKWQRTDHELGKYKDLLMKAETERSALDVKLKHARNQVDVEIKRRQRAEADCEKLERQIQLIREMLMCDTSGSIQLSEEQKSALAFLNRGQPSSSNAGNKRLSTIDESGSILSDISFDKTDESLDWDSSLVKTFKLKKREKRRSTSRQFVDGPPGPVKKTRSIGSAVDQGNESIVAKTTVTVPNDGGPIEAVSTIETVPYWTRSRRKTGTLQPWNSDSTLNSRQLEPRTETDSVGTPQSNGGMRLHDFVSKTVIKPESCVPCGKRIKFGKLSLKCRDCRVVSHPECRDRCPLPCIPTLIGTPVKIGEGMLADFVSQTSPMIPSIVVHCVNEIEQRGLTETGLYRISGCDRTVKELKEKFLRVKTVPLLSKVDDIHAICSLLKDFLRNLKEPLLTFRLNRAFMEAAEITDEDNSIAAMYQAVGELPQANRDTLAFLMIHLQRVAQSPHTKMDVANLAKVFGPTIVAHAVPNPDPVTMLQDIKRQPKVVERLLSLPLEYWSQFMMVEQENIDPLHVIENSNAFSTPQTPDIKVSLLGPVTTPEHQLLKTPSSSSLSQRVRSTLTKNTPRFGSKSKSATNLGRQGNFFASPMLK

Vero [18] = test: cells; type: functional; details: Chlorocebus sabaeus
[19] = HGIII-sPLA2 enzyme inhibition potency – biochemical, QFRET, IC50, dose response (AID 743457);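 also: green fluorescence rise as the enzyme cleaves BODIPY PC-A2 in liposomes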
Paired box protein Pax-8 = Paired box protein Pax-8 (Homo sapiens, UniProt Q06710); test: PAX8 transcriptional activity inhibition in RMG-I – RMG-I cells, luciferase, cherry-pick, dose response (AID 687027); type: functional, cell-based;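 also: luciferase reporter driven by Pax8 target thyroperoxidase promoter measured by SteadyGlo luminescence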
[20] = blockade of melanocortin 4 receptor signaling – cell-based, plate reader, cherry pick, counter-screen for LGR2 antagonist project, dose response (AID 743444); type: functional;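 also: transfected HEK 293 cells stimulated with alpha-MSH peptide; potency of inhibitors of the alpha-MSH evoked signal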
[21] = A549 cell cytotoxicity, dose response, cytotoxicity control, plate reader, cherry-pick, antagonist series (AID 743412); type: functional, cell-based
[22] = blockers of bursicon-stimulated LGR2 cAMP reporter – cell-based, HEK293, CRE-luciferase reporter, cherry pick, set 2, dose response (AID 743343); type: functional;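 also: transfected cells were stimulated with diluted bursicon conditioned medium after compound addition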
[23] = toxicity toward HepG2 liver cells – cell-based, plate reader, cherry-pick, antagonist series, cytotoxicity control, dose response (AID 743416); type: functional
[24] = OVCAR8 cell viability loss – plate reader, dry powder samples, PAX8 project, dose response (AID 743197); type: functional, cell-based; details: OVCAR-8
Vero [25] = test: mammalian cell viability reduction – secondary assay, cytotoxicity control for West Nile virus antiviral project, dose response (AID 1650); type: functional; details: Chlorocebus sabaeus
[26] = target: Luciferin 4-monooxygenase (Photinus pyralis, UniProt P08659); test: inhibition of purified Photinus pyralis luciferase – biochemical, luminescence, dose response (AID 1891)
cells = type: functional, cell-based; details: HEK-CNG
[27] = Luminescence Cell-Based Dose Confirmation HTS to Identify Inhibitors of Platelet Dense Granule Release. [Related pubchem assays: 1663 (Primary HTS), 1678 (Summary of Project)]; type: functional
Galanin receptor type 3 = target: T5, Galanin receptor type 3 (Homo sapiens, UniProt O60755); test: Fluorescence-based cell-based primary high throughput dose response assay to identify antagonists of the Galanin Receptor 3 (GalR3).; type: functional
T5 sequence (O60755 whole entry): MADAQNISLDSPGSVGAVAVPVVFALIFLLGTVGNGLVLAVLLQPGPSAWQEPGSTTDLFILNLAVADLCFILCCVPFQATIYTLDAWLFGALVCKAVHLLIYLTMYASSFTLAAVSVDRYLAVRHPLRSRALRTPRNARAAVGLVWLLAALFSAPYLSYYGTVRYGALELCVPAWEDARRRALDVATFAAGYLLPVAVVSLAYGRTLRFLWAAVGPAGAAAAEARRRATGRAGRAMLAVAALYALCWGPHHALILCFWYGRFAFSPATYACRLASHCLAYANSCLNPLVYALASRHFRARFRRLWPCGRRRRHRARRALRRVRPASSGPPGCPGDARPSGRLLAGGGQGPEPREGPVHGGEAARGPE

T2 sequence (P49327 whole entry): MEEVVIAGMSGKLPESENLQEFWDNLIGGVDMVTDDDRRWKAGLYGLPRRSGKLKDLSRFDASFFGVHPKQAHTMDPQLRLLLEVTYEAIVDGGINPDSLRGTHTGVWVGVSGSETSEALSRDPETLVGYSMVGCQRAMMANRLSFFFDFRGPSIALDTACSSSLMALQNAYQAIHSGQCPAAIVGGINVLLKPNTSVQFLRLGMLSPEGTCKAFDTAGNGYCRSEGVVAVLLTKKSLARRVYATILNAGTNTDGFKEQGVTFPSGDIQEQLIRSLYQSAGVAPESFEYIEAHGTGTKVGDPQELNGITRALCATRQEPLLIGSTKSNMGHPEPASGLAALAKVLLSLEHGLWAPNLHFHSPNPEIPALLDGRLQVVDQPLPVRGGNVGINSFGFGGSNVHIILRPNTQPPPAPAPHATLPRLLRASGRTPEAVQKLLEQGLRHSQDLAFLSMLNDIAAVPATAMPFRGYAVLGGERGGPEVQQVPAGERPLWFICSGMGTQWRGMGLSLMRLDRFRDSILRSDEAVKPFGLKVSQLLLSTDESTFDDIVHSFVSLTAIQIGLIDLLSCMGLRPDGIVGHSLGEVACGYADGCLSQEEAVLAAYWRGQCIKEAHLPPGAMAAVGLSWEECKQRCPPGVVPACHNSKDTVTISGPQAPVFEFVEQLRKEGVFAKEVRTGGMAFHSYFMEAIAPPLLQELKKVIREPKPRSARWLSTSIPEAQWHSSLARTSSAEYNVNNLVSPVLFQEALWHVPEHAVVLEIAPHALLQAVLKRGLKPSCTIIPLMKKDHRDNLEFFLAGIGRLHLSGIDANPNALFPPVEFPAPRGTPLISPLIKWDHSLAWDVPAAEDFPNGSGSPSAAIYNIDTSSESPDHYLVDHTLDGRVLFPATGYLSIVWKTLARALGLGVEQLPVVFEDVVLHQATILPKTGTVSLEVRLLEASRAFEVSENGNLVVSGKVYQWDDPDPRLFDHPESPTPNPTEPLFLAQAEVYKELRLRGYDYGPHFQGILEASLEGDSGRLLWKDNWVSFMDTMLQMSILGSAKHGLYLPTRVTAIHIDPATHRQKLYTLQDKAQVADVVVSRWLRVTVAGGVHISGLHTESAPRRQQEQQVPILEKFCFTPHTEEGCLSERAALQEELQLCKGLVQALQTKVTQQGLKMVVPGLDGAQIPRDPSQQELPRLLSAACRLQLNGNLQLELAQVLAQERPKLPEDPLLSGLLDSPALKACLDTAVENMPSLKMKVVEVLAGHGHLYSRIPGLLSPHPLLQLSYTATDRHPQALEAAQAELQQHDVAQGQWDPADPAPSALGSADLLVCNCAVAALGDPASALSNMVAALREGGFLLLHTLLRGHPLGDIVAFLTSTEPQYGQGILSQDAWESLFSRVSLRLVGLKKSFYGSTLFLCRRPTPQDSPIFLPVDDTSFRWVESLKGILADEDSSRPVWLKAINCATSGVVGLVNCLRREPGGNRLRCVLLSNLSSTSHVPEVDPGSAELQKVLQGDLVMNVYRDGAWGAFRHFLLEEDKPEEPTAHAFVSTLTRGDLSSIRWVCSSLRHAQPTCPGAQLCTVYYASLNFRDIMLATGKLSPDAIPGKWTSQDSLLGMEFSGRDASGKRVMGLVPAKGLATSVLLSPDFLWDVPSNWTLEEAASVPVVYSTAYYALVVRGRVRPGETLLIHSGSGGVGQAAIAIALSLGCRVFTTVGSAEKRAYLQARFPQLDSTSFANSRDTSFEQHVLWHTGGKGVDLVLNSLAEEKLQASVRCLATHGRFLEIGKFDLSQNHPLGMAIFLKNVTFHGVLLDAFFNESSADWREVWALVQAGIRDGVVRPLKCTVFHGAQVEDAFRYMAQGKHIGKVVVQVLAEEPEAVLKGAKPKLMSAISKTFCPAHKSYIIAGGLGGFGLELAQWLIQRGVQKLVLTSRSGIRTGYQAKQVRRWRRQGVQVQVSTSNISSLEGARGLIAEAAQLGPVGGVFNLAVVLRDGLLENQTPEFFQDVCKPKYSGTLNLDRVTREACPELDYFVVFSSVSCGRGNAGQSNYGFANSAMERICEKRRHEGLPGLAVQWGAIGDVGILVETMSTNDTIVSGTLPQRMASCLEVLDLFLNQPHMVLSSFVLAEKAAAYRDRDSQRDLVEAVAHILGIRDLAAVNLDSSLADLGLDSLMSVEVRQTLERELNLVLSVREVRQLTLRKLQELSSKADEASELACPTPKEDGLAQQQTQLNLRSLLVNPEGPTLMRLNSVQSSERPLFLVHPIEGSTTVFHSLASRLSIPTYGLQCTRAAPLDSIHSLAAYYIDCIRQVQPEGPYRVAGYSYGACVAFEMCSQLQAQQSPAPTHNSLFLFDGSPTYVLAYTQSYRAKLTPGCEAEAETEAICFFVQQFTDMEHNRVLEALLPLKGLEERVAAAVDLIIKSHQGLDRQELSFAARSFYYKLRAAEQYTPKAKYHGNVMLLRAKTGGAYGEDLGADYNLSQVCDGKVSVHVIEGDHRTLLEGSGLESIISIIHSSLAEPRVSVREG
Sequence of Paired box protein Pax-8 (Q06710 whole entry): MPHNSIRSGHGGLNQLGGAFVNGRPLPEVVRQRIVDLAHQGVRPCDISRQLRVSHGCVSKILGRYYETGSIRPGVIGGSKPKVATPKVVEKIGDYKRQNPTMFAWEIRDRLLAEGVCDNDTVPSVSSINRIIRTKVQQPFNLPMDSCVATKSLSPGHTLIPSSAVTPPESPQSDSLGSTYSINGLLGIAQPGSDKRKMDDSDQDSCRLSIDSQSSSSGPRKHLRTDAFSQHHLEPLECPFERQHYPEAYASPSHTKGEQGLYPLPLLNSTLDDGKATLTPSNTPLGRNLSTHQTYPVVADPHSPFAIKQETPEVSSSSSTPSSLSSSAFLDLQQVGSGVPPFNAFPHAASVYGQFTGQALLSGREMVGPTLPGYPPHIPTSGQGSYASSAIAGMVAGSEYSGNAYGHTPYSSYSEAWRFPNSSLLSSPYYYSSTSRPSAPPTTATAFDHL
Sequence of Luciferin 4-monooxygenase (P08659 whole entry): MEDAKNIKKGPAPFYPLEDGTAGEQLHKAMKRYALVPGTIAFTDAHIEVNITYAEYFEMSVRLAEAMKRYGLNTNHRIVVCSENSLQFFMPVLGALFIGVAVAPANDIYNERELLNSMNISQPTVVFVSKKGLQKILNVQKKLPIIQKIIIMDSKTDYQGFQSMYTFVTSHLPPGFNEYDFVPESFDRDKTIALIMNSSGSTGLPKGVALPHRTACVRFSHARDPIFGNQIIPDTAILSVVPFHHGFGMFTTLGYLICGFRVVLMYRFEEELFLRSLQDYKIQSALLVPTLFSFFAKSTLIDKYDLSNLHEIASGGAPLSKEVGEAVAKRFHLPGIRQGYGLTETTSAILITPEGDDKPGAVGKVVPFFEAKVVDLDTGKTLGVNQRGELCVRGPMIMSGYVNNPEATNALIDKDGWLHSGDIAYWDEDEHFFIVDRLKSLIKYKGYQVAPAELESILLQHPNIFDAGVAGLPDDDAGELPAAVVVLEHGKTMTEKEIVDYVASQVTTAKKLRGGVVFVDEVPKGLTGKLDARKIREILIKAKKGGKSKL

With `CCCOC(=O)/C(C(=N)NCc1ccccc1)=C(/O)OCCC` the AC50 (INS1) was 97 µM (active) and the CC50 [1] was > 40 µM (active).

For `O=C1OC(c2ccc(F)cc2)=C/C1=C\c1ccc([N+](=O)[O-])o1`, the EC50 [2] was > 60 µM (not active), the IC50 (Protein Tat) was > 100 µM (active) and the EC50 [3] was 0.501 µM (active).

With `Cc1ccc(-c2ccc3c(c2)O[C@@H](CN(C)Cc2ccncc2)[C@H](C)CN([C@@H](C)CO)S3(=O)=O)cc1` the AC50 [4] was 2.19 µM (active), the AC50 [5] was 2.73 µM (active) and the AC50 [6] was 2.2 µM (active). The AC50 [7] was > 39 µM (inactive), the AC50 [8] was 2.23 µM (active) and the AC50 [9] was 24.4 µM (active).

With `Cc1nc2ccc([N+](=O)[O-])cc2c(=O)n1Cc1ccc(Cl)cc1` the IC50 (Fatty acid synthase [10]) was 1.05 µM (active) and the IC50 (Fatty acid synthase [11]) was 0.906 µM (active).

In the case of `CCOC(=O)C1CCN(C(=O)COc2ccc([N+](=O)[O-])cc2)CC1`, the IC50 (Fatty acid synthase [10]) is reported as 9.05 µM (active) and the IC50 (Fatty acid synthase [11]) is reported as 9.85 µM (active).

For `O=C(COC(=O)c1cccc([N+](=O)[O-])c1)NCc1cccs1`, the IC50 (Fatty acid synthase [10]) was 18.7 µM (active) and the IC50 (Fatty acid synthase [11]) was 13.9 µM (active).

For `COc1cccc(C(=O)Cn2c(=N)n(C)c3ccccc32)c1`, the EC50 [12] was 17.7 µM (active), the IC50 [13] was > 67.5 µM (inactive) and the EC50 [14] was > 67.5 µM (inactive). The EC50 [15] was 6.57 µM (active).

In the case of `COc1cccc(C#Cc2ccc([C@@H]3[C@@H](CO)N(C(=O)C4CCCC4)[C@H]3C#N)cc2)c1`, the AC50 [5] is reported as 4.4 µM (active) and the AC50 [7] is reported as > 39 µM (inactive).

With `O=S(=O)(Nc1ccc2[nH]c(O)nc2c1)c1ccc(F)c(Cl)c1` the CC50 [1] was > 40 µM (active).

With `COc1ccccc1/C=C(/CC(=O)NCc1ccccc1)c1nc2ccccc2s1` the IC50 (Protein Tat) was > 100 µM (active).

For `COc1cc2c(cc1NC(=O)C(Cl)Cl)-c1ccc(NC(=O)C(Cl)Cl)cc1C2`, the CC50 [16] was 10.3 µM (active) and the IC50 [17] was 58.4 µM (active).

With `N=C(N)N/N=C/c1ccc(Cl)cc1Cl` the EC50 [2] was 19.4 µM (active), the CC50 [16] was 66.3 µM (active) and the CC50 (Vero [18]) was 18.9 µM (active). For the same compound, the EC50 [3] was 0.204 µM (active).

For `COc1cc(/C=N/NC(=O)c2cccc(NC(=O)c3ccccc3C)c2)ccc1O`, the CC50 [16] was 100 µM (active) and the IC50 [17] was 35.9 µM (active).

With `N=C(N)SCc1ccc(Cl)c2ccccc12` the IC50 [19] was > 122 µM (inactive).

In the case of `C[C@@H]1CN([C@H](C)CO)C(=O)c2c(c3ccccc3n2C)-c2ccccc2CO[C@@H]1CN(C)S(=O)(=O)c1ccc(C(F)(F)F)cc1`, the AC50 (Paired box protein Pax-8) is reported as 5.24 µM (active), the AC50 [4] is reported as 2.62 µM (active) and the AC50 [20] is reported as 35.3 µM (active). The AC50 [5] was 2.41 µM (active), the AC50 [21] was 19.4 µM (active) and the AC50 [6] was 1.76 µM (active). The AC50 [22] was 25.9 µM (active), the AC50 [7] was > 42 µM (inactive) and the AC50 [8] was 3.33 µM (active). For the same compound, the AC50 [9] was 15.1 µM (active), the AC50 [23] was 17.7 µM (active) and the AC50 [24] was > 70 µM (inactive).

For `CCOc1ccc(-c2noc(COC)n2)cc1OC`, the IC50 [13] was > 67.5 µM (inactive) and the EC50 [14] was > 67.5 µM (inactive).

With `CCc1ccc(-c2nc(CN3CCC(C(=O)N4CCN(c5ccccc5)CC4)CC3)c(C)o2)cc1` the CC50 (Vero [25]) was 16.3 µM (active).

In the case of `CC1CC(=O)NN=C1c1ccc(N)c([N+](=O)[O-])c1` (stereo unspecified), the EC50 [26] is reported as > 112 µM (not active), the EC50 (cells) is reported as > 29.9 µM (inactive) and the EC50 [27] is reported as < 0.088 µM (active). For the same compound, the IC50 (Galanin receptor type 3) was 0.26 µM (active).

For `COc1cccc(C(=O)Oc2cc3c4c(c2)C(C)=CC(C)(C)N4C(=O)C3=O)c1`, the IC50 [19] was 43.2 µM (inactive).

In the case of `FC(F)(F)c1ccc(Oc2ccc(Cl)cc2Br)nc1`, the IC50 [13] is reported as > 67.5 µM (inactive) and the EC50 [14] is reported as > 67.5 µM (inactive).
